“And” between values parts separate entries of the source, which are not always exact repeats. Equal entries are not always repeated.
Test system: CAIX-expressing SK-RC-52 tumors
Assay: Biodistribution in mice bearing SK-RC-52 xenografts
Assay type: in vivo
Conditions: 1 h post-injection, 740 kBq i.v.
Procedure: Animal experiments were performed in accordance with protocols approved by the Johns Hopkins Animal Care and Use Committee (ACUC). Six-week-old female NOD/SCID mice were purchased from the Animal Resource Core of the Sidney Kimmel Comprehensive Cancer Center of Johns Hopkins and were subcutaneously injected in the lower left flank or upper right flank with 1×10^6 SK-RC-52 cells in RPMI 1640 GlutaMAX™ media (Life Technologies, Frederick, Md.) supplemented with 1% fetal bovine serum (FBS). Mice were monitored for tumor size and used for SPECT/CT imaging when the size of the tumor reached 100 mm^3.
Mice bearing SK-RC-52 xenografts at lower left flank were injected intravenously with 740 kBq (20 μCi) of [^111In]XYIMSR-01, or [^177Lu]XYIMSR-01 in 200 μL of PBS. For competitive blocking, same tumor bearing mice were injected with 740 kBq (20 μCi) of [^111In]XYIMSR-01 and 200 nmole of 8 in 200 μL of PBS. At 1 h, 4 h, 8 h, 24 h and 48 h post-injection, mice were sacrificed by cervical dislocation and the blood was immediately collected by cardiac puncture. Heart, lungs, pancreas, spleen, fat, brain, muscle, small intestines, liver, stomach, kidney, urinary bladder, and tumor were collected. Each organ was weighed and the tissue radioactivity was measured with an automated gamma counter (1282 Compugamma CS, Pharmacia/LKBNuclear, Inc., Mt. Waverly, Vic. Australia). The percentage of injected dose per gram of tissue (% ID/g) was calculated by comparison with samples of a standard dilution of the initial dose. All measurements were corrected for radioactive decay.
Data were expressed as mean±standard deviation (SD). Prism software (GraphPAD, San Diego, Calif.) was used to determine statistical significance. Statistical significance was calculated using a paired t test. P-values <0.0001 were considered significant.
Mice bearing SK-RC-52 xenografts within the lower left flank were injected intravenously with 740 kBq (20 μCi) of [Al^18F]XYIMSR-04 in 200 μL of PBS. At specific 1 hour time point mentioned in the paper, mice (n=5) were sacrificed by cervical dislocation and the blood was immediately collected by cardiac puncture. Heart, lungs, pancreas, spleen, fat, brain, muscle, small intestines, liver, bone, stomach, kidney, urinary bladder, and tumor were collected. Each organ was weighed and the tissue radioactivity was measured with an automated gamma counter (1282 Compugamma CS, Pharmacia/LKBNuclear, Inc., Mt. Waverly, Vic. Australia). The percentage of injected dose per gram of tissue (% ID/g) was calculated by comparison with samples of a standard dilution of the initial dose. All measurements were corrected for radioactive decay. Data were expressed as mean±standard deviation (SD). Prism software (GraphPAD, San Diego, Calif.) was used to determine statistical significance. Statistical significance was calculated using a paired t test. P-values <0.0001 were considered significant.
Mice bearing SK-RC-52 xenografts within the upper right flank were injected intravenously with 740 kBq (20 μCi) of [^64Cu]XYIMSR-06 in 200 μL of PBS. For in vivo competition (binding specificity) studies, tumor-bearing mice were injected with 740 kBq (20 μCi) of [^64Cu]XYIMSR-06 and 200 nmole of 8 in 200 μL of PBS concurrently. At specific times after injection (1 h, 4 h, 8 h and 24 h), mice (n=5) were sacrificed by cervical dislocation with blood immediately collected by cardiac puncture. Heart, lungs, pancreas, spleen, fat, brain, muscle, small intestines, liver, stomach, kidney, urinary bladder, and tumor were also collected. Each organ was weighed and the tissue radioactivity was measured with an automated gamma counter (1282 Compugamma CS, Pharmacia/LKBNuclear, Inc., Mt. Waverly, Vic. Australia). The percentage of injected dose per gram of tissue (% ID/g) was calculated by comparison with samples of a standard dilution of the initial dose. All measurements were corrected for radioactive decay. Data were expressed as mean±standard deviation (SD). […]

CC(CCC(=O)N[C@@H](CC(=O)N[C@@H](CC(=O)N[C@@H](CCCCn1cc(CCCC(=O)Nc2nnc(S(N)(=O)=O)s2)nn1)C(=O)NCCOCCOCCNC(=O)CN1CCN2CCN(CC1)CC(=O)[O][Al]([18F])[O]C(=O)C2)C(=O)O)C(=O)O)(c1ccc(O)cc1)c1ccc(O)cc1 [[Al^18F]XYIMSR-04]
Biodistribution Kidney: 50.84 ± 2.65 % ID/g | Biodistribution Muscle: 1.74 ± 0.58 % ID/g | Biodistribution Small intestine: 9.59 ± 1.04 % ID/g | Tumor/Kidney ratio: 0.28 and 0.28 ± 0.03 | Tumor/Muscle ratio: 9.74 and 9.74 ± 2.9

Source: US10857246B2, “Nuclear imaging and radiotherapeutics agents targeting carbonic anhydrase IX and uses thereof” (THE JOHNS HOPKINS UNIVERSITY, priority 2015, dated 2020)
